Results on 10 compounds are retold here after patent US11634384B2, “Prodrugs of phenolic TRPV1 agonists” (Concentric Analgesics, Inc., priority 2014, dated 2023).

Molecules are shown by their SMILES. Like-named read-outs stand apart in the source and are kept apart here.

The conditions of series [1]: comparison value; cited from earlier work.
Series [2] in a line: In vitro (pH stability) assay: intramolecular cyclization-release of capsaicin. The series is classed as physicochemical. As for the experimental part: These compounds are examples of pH activated prodrugs whereby upon exposure to a specific pH, the half-life of the intramolecular cyclization-release reaction is determined. As previously described, the intramolecular cyclization-release reaction results in the concomitant formation of a cyclic urea with the release of the parent drug.
Compounds were incubated in the buffer/biological media indicated (TRIS® obtained from Sigma-Aldrich, St. Louis, Mo., USA, Catalog No. T1503). The reactions were conducted at either room temperature or 37° C.

Series [3] is described as follows: Solubility assay in DI water. To be noted: for solubility at 24 h: thermodynamic from solid, HCl salts, incubated at 50 or 100 mg/mL in DI water, shaking 24 hours, supernatant quantified. The series is classed as physicochemical. The method, then: In order to determine the aqueous solubility of the compounds described herein, the HCl salts of the following compounds were incubated at either 50 or 100 mg/mL in DI water followed by shaking for 24 hours. The solutions were then centrifuged and visually inspected for insoluble material. In all cases, no insoluble material was observed.

The target in series [4] is T1, TRPV receptor (Rattus norvegicus, UniProt O35433).
T1 construct: purchased Eurofins, Panlabs/Cerep 286810
T1 sequence (O35433 whole entry): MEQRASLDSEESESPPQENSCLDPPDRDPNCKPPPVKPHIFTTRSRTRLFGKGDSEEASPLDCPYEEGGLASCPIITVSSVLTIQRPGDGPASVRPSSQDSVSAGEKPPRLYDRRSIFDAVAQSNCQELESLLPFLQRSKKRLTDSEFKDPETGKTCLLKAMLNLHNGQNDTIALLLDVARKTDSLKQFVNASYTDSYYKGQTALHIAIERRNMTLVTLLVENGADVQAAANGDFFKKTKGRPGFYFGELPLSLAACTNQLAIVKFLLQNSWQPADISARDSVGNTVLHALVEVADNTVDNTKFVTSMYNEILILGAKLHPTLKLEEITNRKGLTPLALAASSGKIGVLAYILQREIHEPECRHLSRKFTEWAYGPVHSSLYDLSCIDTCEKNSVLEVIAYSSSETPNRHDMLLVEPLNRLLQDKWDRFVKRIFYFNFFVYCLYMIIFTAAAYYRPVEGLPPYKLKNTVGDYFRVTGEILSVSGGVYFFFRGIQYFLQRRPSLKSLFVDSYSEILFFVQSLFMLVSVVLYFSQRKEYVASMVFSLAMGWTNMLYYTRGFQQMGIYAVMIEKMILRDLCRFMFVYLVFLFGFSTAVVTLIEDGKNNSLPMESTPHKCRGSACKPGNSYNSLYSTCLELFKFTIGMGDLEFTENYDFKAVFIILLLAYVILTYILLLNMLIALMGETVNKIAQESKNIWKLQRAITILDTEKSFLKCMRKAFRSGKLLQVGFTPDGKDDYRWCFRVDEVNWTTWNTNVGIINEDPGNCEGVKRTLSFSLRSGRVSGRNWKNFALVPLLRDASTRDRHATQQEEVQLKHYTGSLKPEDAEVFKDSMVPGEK
The series is described as follows: biochemical. The series is classed as binding.

Series [5] has as its target T1, TRPV receptor. To be noted: historical controls; read-out: historical control value; cited from earlier work.
The mark [6] stands for this setting: pH 7.4, pH = ~7.4 (0.3M aqueous tris buffer), 20° C., read-out: Intramolecular Cyclization-Release Half-life (T1/2).
[7] abbreviates: pH 7.4, pH = ~7.4 (1.0M aqueous tris buffer), 37° C., read-out: Intramolecular Cyclization-Release Half-life (T1/2).

With `COc1cc(CNC(=O)CCCCC=CC(C)C)ccc1O` [Capsaicin, 8-methyl-N-vanillyl-6-nonenamide], the “aqueous solubility of capsaicin in water” value in series [1] was around 0.064 mg/mL.
`COc1cc(CNC(=O)CCCC/C=C/C(C)C)ccc1OC(=O)N(C)CCN` [Compound 1, (E)-2-methoxy-4-((8-methylnon-6-enamido)methyl)phenyl (2-aminoethyl)(methyl)carbamate]: the half-life in series [2] (setting [6]) was around 24.1 h.
`CNCCN(C)C(=O)Oc1ccc(CNC(=O)CCCC/C=C/C(C)C)cc1OC` [Compound 2, (E)-2-methoxy-4-((8-methylnon-6-enamido)methyl)phenyl methyl(2-(methylamino)ethyl)carbamate]: the half-life in series [2] (setting [6]) is around 3.2 h.
`COc1cc(CNC(=O)CCCC/C=C/C(C)C)ccc1OC(=O)N1CCCCC1CN` (stereo not drawn) [Compound 3, (E)-2-methoxy-4-((8-methylnon-6-enamido)methyl)phenyl 2-(aminomethyl)piperidine-1-carboxylate]: the “increase in aqueous solubility from the parent compound, capsaicin” value in series [3] (hydrogen chloride salts vs capsaicin) is recorded as above 780 fold. In addition, in series [3], the solubility (as a rule, the concentration that dissolves in the medium under given conditions) at 24 h is above 100 mg/mL. For the same compound, the half-life was around 0.527 h in series [2] (setting [6]) and around 0.215 h in series [2] (setting [7]).
On to `COc1cc(CNC(=O)CCCC/C=C/C(C)C)ccc1OC(=O)N1CCCC1CN` (stereo not drawn) [Compound 4, (E)-2-methoxy-4-((8-methylnon-6-enamido)methyl)phenyl 2-(aminomethyl)pyrrolidine-1-carboxylate], for which the half-life in series [2] (setting [6]) was around 295 h.
For `COc1cc(CNC(=O)CCCC/C=C/C(C)C)ccc1OC(=O)N(CCN)CCN` [Compound 5, (E)-2-methoxy-4-((8-methylnon-6-enamido)methyl)phenyl bis(2-aminoethyl)carbamate], in series [3], the solubility at 24 h was above 100 mg/mL. Further, the figures for the half-life in series [2] (setting [6]) and in series [2] (setting [7]) were around 1.18 h and around 0.412 h, respectively.
As to `COc1cc(CNC(=O)CCCC/C=C/C(C)C)ccc1OC(=O)N(C)CCCN` [Compound 6, (E)-2-methoxy-4-((8-methylnon-6-enamido)methyl)phenyl (3-aminopropyl)(methyl)carbamate], the half-life in series [2] (setting [6]) is around 739 h.
As for `CNCC1CCCCN1C(=O)Oc1ccc(CNC(=O)CCCC/C=C/C(C)C)cc1OC` (stereo not drawn) [Compound 7, (E)-2-methoxy-4-((8-methylnon-6-enamido)methyl)phenyl 2-((methylamino)methyl)piperidine-1-carboxylate], the solubility at 24 h in series [3] was above 50 mg/mL. Moreover, in series [2], the “intramolecular cyclization-release half-life, order of magnitude in words” value is on record as “minutes”. Also, the “Intramolecular Cyclization-Release Half-life (T1/2)” value in series [2] (pH 7.4) is reported as around 3.1 min. Moreover, the half-life in series [2] (pH 7.4, Intramolecular Cyclization-Release Half-life (T1/2)) was around 0.0733 h.
`COc1cc(CNC(=O)CCCC/C=C/C(C)C)ccc1OC(=O)N1CCNCC1` [Compound 8, (E)-2-methoxy-4-((8-methylnon-6-enamido)methyl)phenyl piperazine-1-carboxylate]: the half-life at 2 weeks in series [2] (pH 7.4, pH = ~7.4 (0.3M aqueous tris buffer), 20° C., conversion to capsaicin over 2 weeks, read-out: Intramolecular Cyclization-Release Half-life (T1/2)) was above 336 h. Moreover, the inhibition (in general, the relative decrease from the control value, in per cent) at 100 µM against TRPV receptor [4] (@ 100 uM) turned out to be 23%. The IC50 on TRPV receptor [4] (read-out: IC50) is above 100000 nM.
On to `C=C(C)[C@]12C[C@@H](C)[C@@]34O[C@](Cc5ccccc5)(O[C@@H]1[C@@H]3C=C(COC(=O)Cc1ccc(O)c(OC)c1)C[C@]1(O)C(=O)C(C)=C[C@@H]41)O2` [Resiniferatoxin, reference compound], for which the IC50 was 0.16 nM against TRPV receptor [4] and 0.46 nM on TRPV receptor [5].
